# According to ChEMBL document CHEMBL4145539, “Phenylpyridine-2-ylguanidines and rigid mimetics as novel inhibitors of TNFα overproduction: Beneficial action in models of neuropathic pain and of acute lung inflammation” (Eur J Med Chem, 2018):
# The source made the active and inactive calls. No cut-off for these calls is given here.
# Tests used:
# [1] = tested on: PBMC; assay: Anti-inflammatory activity in human PBMC assessed as inhibition of LPS-induced TNFalpha production at 10 uM after 24 hrs by ELISA relative to control; type: functional
# [2] = tested on: PBMC; assay: Anti-inflammatory activity in human PBMC assessed as inhibition of LPS-induced IL-1beta production at 10 uM after 24 hrs by ELISA relative to control; type: functional
# [3] = Cytotoxicity against human PBMC assessed as cell viability at 10 um after 24 hrs by WST-1 assay relative to control; type: cell-based; conditions: PBMC (peripheral blood mononuclear cells), read-out: Activity
# [4] = tested on: Mus musculus; assay: Toxicity in C57BL/6 mouse assessed as effect on number of inflammatory cells recovered in BALF at 5 mg/kg, ip bid administered 1 hr before and 10 hrs after LPS treatment measured 24 hrs post LPS treatment by flow cytometry; type: organism-based; conditions: in vivo
# [5] = tested on: Mus musculus; assay: Toxicity in C57BL/6J mouse model of sciatic nerve ligation-induced neuropathic pain assessed as body weight loss at 5 mg/kg, ip bid for 17 consecutive days starting from 2 to 3 weeks post surgery relative to control; type: organism-based; conditions: in vivo
# [6] = tested on: Mus musculus; assay: Toxicity in C57BL/6J mouse model of sciatic nerve ligation-induced neuropathic pain assessed as body weight loss at 1 mg/kg, ip bid for 17 consecutive days starting from 2 to 3 weeks post surgery; type: organism-based; conditions: in vivo
# [7] = tested on: PBMC; assay: Anti-inflammatory activity in human PBMC assessed as inhibition of LPS-induced TNFalpha production after 24 hrs by ELISA; type: functional, cell-based
# [8] = tested on: PBMC; assay: Anti-inflammatory activity in human PBMC assessed as inhibition of LPS-induced IL-1beta production after 24 hrs by ELISA; type: functional, cell-based
# [9] = tested on: Mus musculus; assay: Anti-inflammatory activity in LPS-induced acute lung inflammation C57BL/6 mouse model assessed as inhibition of neutrophils recruitment in BALF at 5 mg/kg, ip bid administered 1 hr before and 10 hrs after LPS treatment measured 24 hrs post LPS treatment by flow cytometry relative to control; type: functional; conditions: C57BL/6, ip
# [10] = tested on: Mus musculus; assay: Anti-inflammatory activity in LPS-induced acute lung inflammation C57BL/6 mouse model assessed as inhibition of lymphocytes recruitment in BALF at 5 mg/kg, ip bid administered 1 hr before and 10 hrs after LPS treatment measured 24 hrs post LPS treatment by flow cytometry relative to control; type: functional; conditions: C57BL/6, ip
# [11] = tested on: Mus musculus; assay: Anti-inflammatory activity in LPS-induced acute lung inflammation C57BL/6 mouse model assessed as inhibition of TNFalpha level in BALF at 5 mg/kg, ip bid administered 1 hr before and 10 hrs after LPS treatment measured 24 hrs post LPS treatment by ELISA relative to control; type: functional; conditions: C57BL/6, ip
# [12] = tested on: Mus musculus; assay: Antiallodynic activity in C57BL/6J mouse model of sciatic nerve ligation-induced neuropathic pain assessed as increase in paw withdrawal latency time at 5 mg/kg, ip bid for 17 consecutive days starting from 2 to 3 weeks post surgery measured on day 11 during compound dosing by Von Frey test; type: functional, organism-based
# [13] = tested on: Mus musculus; assay: Antiallodynic activity in C57BL/6J mouse model of sciatic nerve ligation-induced neuropathic pain assessed as increase in paw withdrawal latency time at 1 mg/kg, ip bid for 17 consecutive days starting from 2 to 3 weeks post surgery measured on day 16 during compound dosing by Von Frey test; type: functional, organism-based
# [14] = tested on: Mus musculus; assay: Toxicity in C57BL/6J mouse model of sciatic nerve ligation-induced neuropathic pain assessed as behavioral changes at 1 to 5 mg/kg, ip bid for 17 consecutive days starting from 2 to 3 weeks post surgery; type: organism-based; conditions: in vivo
# [15] = tested on: Mus musculus; assay: Antiallodynic activity in C57BL/6J mouse model of sciatic nerve ligation-induced neuropathic pain assessed as increase in paw withdrawal latency time at 1 mg/kg, ip bid for 17 consecutive days starting from 2 to 3 weeks post surgery by Von Frey test; type: functional, organism-based
SMILES,inhibition at 10 µM [1] [%],inhibition at 10 µM [2] [%],"viability at 24 h, 10 µM [3] [%]",also measured
N=C(N)Nc1ccc(-c2ccccc2Cl)cn1,82,96,55,
COc1ccccc1-c1ccnc(NC(=N)N)c1,10,-1,99,
COc1cccc(-c2cccc(NC(=N)N)n2)c1,7,2,104,
NC1=Nc2cccc(-c3ccccc3)c2CN1,7,0,111,
NC(N)=Nc1cc(-c2ccccc2)ccn1,,,72,Activity [4]: Non-Toxic; Activity [5]: 5%; Activity [6]: Non-Toxic
N=C(N)Nc1ccc(-c2ccc(Cl)cc2)cn1,72,97,23,
COc1ccc(-c2ccc(NC(=N)N)nc2)cc1,58,48,34,
NC1=Nc2cc(-c3ccccc3)ccc2CN1,76,93,81,IC50 [7]: 1 µM; IC50 [8]: 3.7 µM; inhibition in vivo at 5 mg/kg [9]: 62%; inhibition in vivo at 5 mg/kg [10]: 63%; inhibition in vivo at 5 mg/kg [11]: 49%; Activity [4]: Non-Toxic; Activity [12]: Active; Activity [13]: Active; Activity [14]: Non-Toxic
Nc1nc2ccc(-c3ccccc3)cc2[nH]1,15,3,114,
NC1=Nc2ccc(-c3ccccc3)cc2CN1,22,,90,
COc1cccc(-c2ccc(NC(=N)N)nc2)c1,25,4,116,
N=C(N)Nc1cccc(-c2ccccc2)n1,18,3,100,IC50 [7]: 18.6 µM; IC50 [8]: > 30 µM
N=C(N)Nc1cc(-c2ccccc2)ccn1,67,91,,IC50 [7]: 1.2 µM; IC50 [8]: 5.8 µM; inhibition in vivo at 5 mg/kg [9]: 39%; inhibition in vivo at 5 mg/kg [10]: 52%; Activity [15]: Active
N=C(N)Nc1ncccc1-c1ccccc1,11,1,108,
COc1ccc(-c2cccc(NC(=N)N)n2)cc1,27,-6,94,
COc1ccccc1-c1ccc2c(c1)CNC(N)=N2,13,1,126,
N=C(N)Nc1cc(-c2cccc(Cl)c2)ccn1,64,53,38,

SMILES,inhibition at 10 µM [1] [%],inhibition at 10 µM [2] [%],"viability at 24 h, 10 µM [3] [%]",also measured
N=C(N)Nc1ccc(-c2cccc(Cl)c2)cn1,52,8,94,IC50 [7]: 5.5 µM; IC50 [8]: 17.5 µM
N=C(N)Nc1cccc(-c2ccc(Cl)cc2)n1,72,77,35,
COc1ccccc1-c1ccc(NC(=N)N)nc1,56,4,78,IC50 [7]: 7.7 µM; IC50 [8]: > 30 µM
NC(=S)Nc1cc(-c2ccccc2)ccn1,4,1,86,
CNCCC=C1c2ccccc2CCc2ccccc21,,,,Activity [15]: inactive; Activity [12]: Active
N=C(N)Nc1cc(-c2ccccc2Cl)ccn1,65,23,42,
N=C(N)Nc1ccc(-c2ccccc2)cn1,-9,-1,97,
NC1=Nc2cc(-c3ccccc3)ccc2CCN1,-7,-4,100,
N=C(N)Nc1cccc(-c2ccccc2Cl)n1,47,9,74,IC50 [7]: 19.2 µM; IC50 [8]: > 30 µM
N=C(N)Nc1cccc(-c2cccc(Cl)c2)n1,74,80,40,
N=C(N)Nc1cc(-c2ccc(Cl)cc2)ccn1,69,97,24,
N=C(N)Nc1cc(-c2ccc(C(F)(F)F)cc2)ccn1,71,98,24,
COc1cccc(-c2ccnc(NC(=N)N)c2)c1,56,29,66,
COc1ccc(-c2ccnc(NC(=N)N)c2)cc1,69,86,34,
COc1ccc(C2CNC(=O)C2)cc1OC1CCCC1 (centres undefined) [ROLIPRAM],79,,104,IC50 [7]: 0.13 µM
COc1ccccc1-c1cccc(NC(=N)N)n1,7,1,106,
